Ends that are not written are not given here.
System: SD rats
Experiment: Healing of full-layer skin defect wound in SD rats
Assay type: in vivo, rat
Conditions: SD rats, topical once a day, polypeptide 50 μg/cm^2, comparative polypeptide 1 41.90 μg/cm^2, comparative polypeptide 2 52.66 μg/cm^2, Mean ± SD, n = 8
Procedure: Experimental animals: SD male rats, SPF grade, 6 weeks old, weighing 180-220 g, from Beijing Vital River Laboratory Animal Technology Co., Ltd., with the experimental animal quality certification number of NO.110011220109610345, and the experimental animal use license number of SCXK (Beijing) 2021-0011.
Experimental method: SD rats were randomly divided into […] based on the body weight with 8 animals in each group, namely, vehicle group, the polypeptide group (50 μg/cm^2), comparative polypeptide 1 group (41.90 μg/cm^2) and comparative polypeptide 2 group (52.66 μg/cm^2). The amino acid sequence of comparative polypeptide 1 is Glu-Pro-Val-Pro-Leu; and the amino acid sequence of comparative polypeptide 2 is Pro-Ala-Ala-Glu-Pro-Val-Pro-Leu-Val-Lys-Gln-Glu.
After each experimental rat was anesthetized by intraperitoneal injection of 2% pentobarbital sodium (0.2 mL/100 g), a 2 cm^2 full-layer skin defect wound was prepared at each of both sides of the back spine. After hemostasis of the wound, the corresponding drug was administered at the wound locally by group. Each group was administered once a day, with a dosed volume of 72 μL/wound each time, for 14 consecutive days. After the administration, the wound was covered with a sterile vaseline gauze (5 cm*5 cm), and bandaged with multi-layer sterile gauzes. After the wound surgery, the wound was photographed, and the wound area was recorded as the baseline value (the wound was recorded as Day0). During the administration period, the areas of the wounds were photographed and measured 3 times a week, and the healing was observed.

Row | Substance | Wound healing rate (Day 0 (baseline)) | Wound healing rate (Day 3) | Wound healing rate (Day 5) | Wound healing rate (Day 7) | Wound healing rate (Day 10)
1 | Glu-Pro-Val-Pro-Leu (EPVPL; printed: Glu-Pro-Val-Pro-Leu) [Comparative polypeptide 1] | 0.00 ± 0.00% | 21.13 ± 17.43% | 40.18 ± 17.43% | 68.84 ± 7.64% | 88.90 ± 8.40%
2 | PAAEPVPLVKQE [Comparative polypeptide 2] | 0.00 ± 0.00% | 17.21 ± 22.78% | 50.08 ± 16.55% | 65.26 ± 14.46% | 90.34 ± 3.04%

Reference: patent publication US20250057910A1, “Application of Polypeptide in Preparation of Product for Preventing or Treating Skin Injury Diseases” (Sichuan Gooddoctor Panxi Pharmaceutical Co., Ltd., priority 2021, published 2025)
